Data taken from ChEMBL document CHEMBL1177813, “Design and synthesis of trivalent ligands targeting opioid, cholecystokinin, and melanocortin receptors for the treatment of pain” (Bioorg Med Chem Lett, 2010).
Activity calls are given as the source filed them. The rule behind the calls is not given here.

What was measured:
[1] = target: Mu-type opioid receptor (Cavia porcellus, UniProt P97266); assay: Agonist activity at mu opioid receptor in guinea pig ileum assessed as inhibition of electrically-stimulated muscle contraction; type: functional, tissue-based
Chain of Mu-type opioid receptor (Cavia porcellus, UniProt P97266) (P97266 whole entry): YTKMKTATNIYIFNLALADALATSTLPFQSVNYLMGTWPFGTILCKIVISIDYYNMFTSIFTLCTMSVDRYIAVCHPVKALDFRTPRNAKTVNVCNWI

[2] = target: Delta-type opioid receptor (Mus musculus, UniProt P32300); assay: Agonist activity at delta opioid receptor in mouse vas deferens assessed as inhibition of electrically-stimulated muscle contraction; type: functional, tissue-based
Chain of Delta-type opioid receptor (Mus musculus, UniProt P32300) (P32300 whole entry): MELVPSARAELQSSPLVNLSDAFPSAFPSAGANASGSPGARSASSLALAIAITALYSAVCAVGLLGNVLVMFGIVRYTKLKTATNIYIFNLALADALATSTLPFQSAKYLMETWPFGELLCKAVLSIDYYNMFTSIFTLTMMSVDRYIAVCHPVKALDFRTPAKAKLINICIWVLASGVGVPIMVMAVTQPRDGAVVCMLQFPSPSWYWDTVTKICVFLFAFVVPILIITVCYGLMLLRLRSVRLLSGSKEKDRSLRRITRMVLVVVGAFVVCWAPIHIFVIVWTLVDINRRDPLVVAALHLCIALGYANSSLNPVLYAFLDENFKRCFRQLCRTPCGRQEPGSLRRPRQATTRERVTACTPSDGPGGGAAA

[3] = target: Mu-type opioid receptor (Rattus norvegicus, UniProt P33535); assay: Displacement of [3H]DAMGO from rat mu opioid receptor expressed in mouse HN9.10 cells; type: cell-based
Chain of Mu-type opioid receptor (Rattus norvegicus, UniProt P33535) (P33535 whole entry): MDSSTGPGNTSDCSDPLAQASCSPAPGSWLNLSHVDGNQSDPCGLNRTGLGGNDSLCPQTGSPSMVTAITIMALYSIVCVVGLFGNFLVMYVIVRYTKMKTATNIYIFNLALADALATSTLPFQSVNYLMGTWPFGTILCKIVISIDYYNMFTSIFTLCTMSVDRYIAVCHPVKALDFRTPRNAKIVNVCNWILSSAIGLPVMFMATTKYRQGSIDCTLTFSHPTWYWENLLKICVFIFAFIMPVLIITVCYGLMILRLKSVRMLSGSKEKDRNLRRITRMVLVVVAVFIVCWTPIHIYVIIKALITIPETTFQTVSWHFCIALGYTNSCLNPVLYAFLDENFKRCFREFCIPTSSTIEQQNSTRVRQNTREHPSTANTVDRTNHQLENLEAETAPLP

[4] = target: Melanocortin receptor 4 (Homo sapiens, UniProt P32245); assay: Displacement of Eu-NDP-alphaMSH from human MC4 receptor expressed in human HEK293 cells; type: cell-based
Chain of Melanocortin receptor 4 (P32245 whole entry): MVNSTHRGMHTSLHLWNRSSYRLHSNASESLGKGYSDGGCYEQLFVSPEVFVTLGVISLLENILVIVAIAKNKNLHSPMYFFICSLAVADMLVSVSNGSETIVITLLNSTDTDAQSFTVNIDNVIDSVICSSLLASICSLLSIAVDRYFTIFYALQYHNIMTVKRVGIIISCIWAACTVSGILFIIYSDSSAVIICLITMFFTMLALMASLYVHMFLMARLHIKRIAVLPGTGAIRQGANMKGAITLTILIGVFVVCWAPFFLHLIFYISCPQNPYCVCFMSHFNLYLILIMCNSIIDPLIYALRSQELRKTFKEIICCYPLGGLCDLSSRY

[5] = target: T1, Gastrin/cholecystokinin type B receptor (Homo sapiens, UniProt P32239); assay: Displacement of [125I]CCK-8(SO3) from human CCK2 receptor expressed in human HEK293 cells; type: cell-based
T1 sequence (P32239 whole entry): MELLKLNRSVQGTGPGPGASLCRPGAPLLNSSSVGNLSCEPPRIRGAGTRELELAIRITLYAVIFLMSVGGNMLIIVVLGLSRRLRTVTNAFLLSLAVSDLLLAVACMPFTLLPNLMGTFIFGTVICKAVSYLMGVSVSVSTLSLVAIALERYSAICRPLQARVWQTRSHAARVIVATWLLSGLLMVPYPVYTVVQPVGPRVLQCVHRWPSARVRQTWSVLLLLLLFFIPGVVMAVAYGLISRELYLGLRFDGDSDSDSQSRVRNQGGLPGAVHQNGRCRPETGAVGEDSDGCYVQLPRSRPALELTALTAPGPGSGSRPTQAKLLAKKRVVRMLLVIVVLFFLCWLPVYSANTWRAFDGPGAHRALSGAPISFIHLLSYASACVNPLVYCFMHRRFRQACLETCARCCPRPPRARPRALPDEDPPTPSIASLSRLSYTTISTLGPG

[6] = target: T2, Cholecystokinin receptor type A (Homo sapiens, UniProt P32238); assay: Displacement of [125I]CCK-8(SO3) from human CCK1 receptor expressed in human HEK293 cells; type: cell-based; details: for Ki: read-out: Ki
T2 sequence (P32238 whole entry): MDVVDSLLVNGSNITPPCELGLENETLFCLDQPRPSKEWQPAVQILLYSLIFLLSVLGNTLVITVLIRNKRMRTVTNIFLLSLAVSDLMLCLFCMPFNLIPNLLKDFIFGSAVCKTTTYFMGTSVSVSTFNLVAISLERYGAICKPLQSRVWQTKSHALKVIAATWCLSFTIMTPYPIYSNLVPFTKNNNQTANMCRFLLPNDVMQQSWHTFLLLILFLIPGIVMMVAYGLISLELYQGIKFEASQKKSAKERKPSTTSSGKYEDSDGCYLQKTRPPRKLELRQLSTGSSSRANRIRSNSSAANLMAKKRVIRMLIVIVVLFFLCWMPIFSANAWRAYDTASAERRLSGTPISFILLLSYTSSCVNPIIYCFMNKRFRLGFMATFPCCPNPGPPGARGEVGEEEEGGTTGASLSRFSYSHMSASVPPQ

[7] = target: Delta-type opioid receptor (Homo sapiens, UniProt P41143); assay: Displacement of [3H]DPDPE from human delta opioid receptor expressed in mouse HN9.10 cells; type: cell-based
Chain of Delta-type opioid receptor (Homo sapiens, UniProt P41143) (P41143 whole entry): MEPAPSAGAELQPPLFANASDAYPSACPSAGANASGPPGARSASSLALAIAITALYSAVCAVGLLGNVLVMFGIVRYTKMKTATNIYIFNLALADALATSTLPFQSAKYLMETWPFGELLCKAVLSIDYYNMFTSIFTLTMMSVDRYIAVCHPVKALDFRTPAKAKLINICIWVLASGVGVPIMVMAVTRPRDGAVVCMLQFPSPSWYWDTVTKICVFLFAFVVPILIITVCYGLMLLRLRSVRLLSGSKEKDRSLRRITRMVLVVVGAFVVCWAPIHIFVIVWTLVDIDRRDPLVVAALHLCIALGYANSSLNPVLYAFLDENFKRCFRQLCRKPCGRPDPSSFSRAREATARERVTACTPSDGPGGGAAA

[8] = organism: Homo sapiens; assay: Selectivity ratio of Ki for human CCK1 receptor to Ki for human CCk2 receptor
[9] = organism: Cavia porcellus; assay: […] activity at CCK receptor in Hartley guinea pig ileum longitudinal muscle with myenteric plexus assessed as inhibition of CCK8-stimulated muscle contraction at 1 uM; type: functional, tissue-based
[10] = Agonist activity at CCK receptor in Hartley guinea pig ileum longitudinal muscle with myenteric plexus assessed as inhibition of electrically-stimulated muscle contraction at 1 uM relative to KCl; type: functional, Cavia porcellus; design: scale not given: the % may be the effect or the level left
[11] = target: Delta-type opioid receptor (Mus musculus) (UniProt P32300); assay: Agonist activity at delta opioid receptor in mouse vas deferens assessed as inhibition of electrically-stimulated muscle contraction at 1 uM; type: functional, tissue-based; design: scale not given: the % may be the effect or the level left
Chain of Delta-type opioid receptor (Mus musculus) (P32300 whole entry): as the sequence (P32300 whole entry) above

[12] = target: Mu-type opioid receptor (Cavia porcellus) (UniProt P97266); assay: Agonist activity at mu opioid receptor in guinea pig ileum assessed as inhibition of electrically-stimulated muscle contraction at 1 uM; type: functional, tissue-based; design: scale not given: the % may be the effect or the level left
Chain of Mu-type opioid receptor (Cavia porcellus) (P97266 whole entry): as the sequence (P97266 whole entry) above

## CCCC[C@H](NC(=O)[C@H](Cc1c[nH]c2ccccc12)NC(=O)[C@H](CCCNC(=N)N)NC(=O)[C@@H](Cc1ccc2ccccc2c1)NC(=O)[C@H](Cc1cnc[nH]1)NC(=O)[C@H](Cc1ccccc1)NC(=O)CNC(=O)[C@@H](C)NC(=O)[C@@H](N)Cc1ccc(O)cc1)C(=O)N[C@@H](CC(=O)O)C(=O)N[C@@H](Cc1ccccc1)C(N)=O
[1]
  IC50: 200 nM
[2]
  IC50: 60 nM
[3]
  IC50: 1.26 nM
  Ki: 0.69 nM
[4]
  IC50: 260 nM
[5]
  IC50: 126 nM
[5]; read-out: Ki
  Ki: 120 nM
[6]
  IC50: 10 nM
  Ki: 9 nM
[7]
  IC50: 6.31 nM
  Ki: 2.9 nM
[8]
  Ratio Ki: 0.075
[9]
  Ke: inactive
[10]
  Activity: 0%

## CCCC[C@H](NC(=O)[C@H](Cc1c[nH]c2ccccc12)NC(=O)[C@H](CCCN=C(N)N)NC(=O)[C@@H](Cc1ccc2ccccc2c1)NC(=O)[C@H](Cc1cnc[nH]1)NC(=O)[C@H]1Cc2ccccc2CN1C(=O)[C@@H](N)Cc1c(C)cc(O)cc1C)C(=O)N[C@@H](CC(=O)O)C(=O)N[C@@H](Cc1ccccc1)C(N)=O
[1]
  IC50: 570 nM
[2]
  IC50: 130 nM
[3]
  IC50: 39.8 nM
  Ki: 18 nM
[4]
  IC50: 160 nM
[5]
  IC50: 126 nM
[5]; read-out: Ki
  Ki: 100 nM
[6]
  IC50: 31.6 nM
  Ki: 32 nM
[7]
  IC50: 12.6 nM
  Ki: 6.2 nM

## C[C@@H](NC(=O)[C@@H](N)Cc1ccc(O)cc1)C(=O)NCC(=O)N[C@@H](Cc1ccccc1)C(=O)NCCCC[C@H](NC(=O)[C@H](Cc1c[nH]c2ccccc12)NC(=O)[C@H](CCCN=C(N)N)NC(=O)[C@@H](Cc1ccc(Cl)cc1)NC(=O)[C@@H](N)Cc1cnc[nH]1)C(=O)N[C@@H](CC(=O)O)C(=O)N[C@@H](Cc1ccccc1)C(N)=O
[1]
  IC50: 330 nM

## CCCC[C@H](NC(=O)[C@H](Cc1c[nH]c2ccccc12)NC(=O)[C@H](CCCNC(=N)N)NC(=O)[C@@H](Cc1ccccc1)NC(=O)[C@H](Cc1cnc[nH]1)NC(=O)[C@H](Cc1ccccc1)NC(=O)CNC(=O)[C@@H](C)NC(=O)[C@@H](N)Cc1ccc(O)cc1)C(=O)N[C@@H](CC(=O)O)C(=O)N[C@@H](Cc1ccccc1)C(N)=O
[1]
  IC50: 130 nM
[2]
  IC50: 40 nM
[3]
  IC50: 31.6 nM
  Ki: 14 nM
[4]
  IC50: 1300 nM
[5]
  IC50: 31.6 nM
[5]; read-out: Ki
  Ki: 18 nM
[6]
  IC50: 2510 nM
  Ki: 1400 nM
[7]
  IC50: 12.6 nM
  Ki: 6.2 nM
[9]
  Ke: inactive
[10]
  Activity: 0%

## N=C(N)NCCC[C@@H]1NC(=O)[C@H](Cc2ccc(Cl)cc2)NC(=O)[C@H](Cc2cnc[nH]2)NC(=O)CNC(=O)[C@H](NC(=O)[C@@H](N)Cc2ccc(O)cc2)CC(=O)NCCCC[C@@H](C(=O)N[C@@H](CC(=O)O)C(=O)N[C@H](Cc2ccccc2)C(N)=O)NC(=O)[C@H](Cc2cc3ccccc3[nH]2)NC1=O
[3]
  IC50: 3980 nM
  Ki: 2100 nM
[4]
  IC50: 32 nM
[5]
  IC50: 1000 nM
[5]; read-out: Ki
  Ki: 930 nM
[6]
  IC50: 126 nM
  Ki: 560 nM
[7]
  IC50: 2510 nM
  Ki: 1300 nM
[9]
  Ke: inactive
[10]
  Activity: 0%
[11]
  Activity: 16%
[12]
  Activity: 0%

## CCCC[C@H](NC(=O)[C@H](Cc1c[nH]c2ccccc12)NC(=O)[C@H](CCCN=C(N)N)NC(=O)[C@@H](Cc1ccc2ccccc2c1)NC(=O)[C@H](Cc1cnc[nH]1)NC(=O)[C@H](Cc1ccccc1)NC(=O)[C@@H](C)NC(=O)[C@@H](N)Cc1c(C)cc(O)cc1C)C(=O)N[C@@H](CC(=O)O)C(=O)N[C@@H](Cc1ccccc1)C(N)=O
[1]
  IC50: 66 nM
[2]
  IC50: 110 nM
[3]
  IC50: 10 nM
  Ki: 4.9 nM
[4]
  IC50: 500 nM
[5]
  IC50: 200 nM
[5]; read-out: Ki
  Ki: 180 nM
[6]
  IC50: 0.794 nM
[7]
  IC50: 7.94 nM
  Ki: 3.7 nM

## Cc1cc(O)cc(C)c1C[C@H](N)C(=O)N1CC(=O)N[C@@H](Cc2cnc[nH]2)C(=O)N[C@H](Cc2ccccc2)C(=O)N[C@@H](CCCNC(=N)N)C(=O)N[C@@H](Cc2c[nH]c3ccccc23)C(=O)N[C@H](C(=O)N[C@@H](CC(=O)O)C(=O)N[C@@H](Cc2ccccc2)C(N)=O)CSSC[C@@H](N)C1=O
[5]; hek293
  Ki: Not Active
[9]
  Ke: inactive
[10]
  Activity: 0%
